US20180296530A1, “METHOD FOR TREATING ATOPIC DERMATITIS” (priority 2015, published 2018)

How the values were obtained:
[1] = tested on: Patients aged 1 to 18 years with physician-diagnosed AD and sleep problems; experiment: Clinical trial: sleep evaluated by actigraphy; type: in vivo, human
Method: Patients aged 1 to 18 years with physician-diagnosed AD involving at least 5% of the total body surface area were recruited from the pediatric and dermatology outpatient departments of the National Taiwan University Hospital from Aug. 1, 2012, through Jan. 31, 2013. Follow-up was completed on Apr. 13, 2013. Those patients with sleep problems occurring more than 3 days per week during the previous 3 months were eligible. […] They were then randomized to receive oral melatonin, 3 mg/d (General Nutrition Corporation), or placebo (Standard Chem & Pharm Co, Ltd) at bedtime for 4 weeks. After a 2-week washout period, participants crossed to the alternate treatment. Sleep was evaluated by actigraphy (Mini-Mitter Actiwatch; Philips-Respironics). Each participant wore the actigraphic device on the nondominant wrist for 3 consecutive nights starting 3 nights before each treatment period and for the last 3 nights of each treatment period. In a subgroup of patients who offered consent, polysomnography was performed on the night before the first day and on the last night of each treatment period.

[2] = tested on: DNCB-induced AD mouse model; experiment: Example 5: dermatitis severity, topical melatonin in DNCB-induced AD mouse model; type: in vivo, Balb/c mice
Method: (§1) Four- to six-week-old Balb/c mice were maintained under specific pathogen-free conditions. Animals were housed in an air-conditioned animal room (25±1° C.; relative humidity 40±5%) and were fed a laboratory diet and distilled water. Animal care and handling protocols were approved by the Animal Committee of the College of Medicine, Taiwan University, and all procedures were conducted in accordance with the U.S. National Institute of Health guidelines.
The protocol for establishing an AD mouse model in this Example was modified from those described previously. Briefly, referring to FIG. 4, DNCB-induced AD mouse model was prepared by the repeated applications of 20 μL of 1% DNCB in acetone/olive oil (4:1) to the outer and inner surfaces of mouse ears and 100 μL of the same solution to the shaved back skin once on days 1, 2, and 3. Mice of Control group were treated with the identical volumes of vehicle. […]
Macroscopic assessment of the severity of dermatitis was determined by a scoring method as described previously. Briefly, the degree of each sign were scored as 0 (none), 1 (mild), 2 (moderate), and 3 (severe). […] Ear thickness was measured with a thickness gauge (Digimatic Indicator, Mitsutoyo, Tokyo). […]

IL-4 = experiment: Example 5: dorsal skin IL-4 mRNA by RT-PCR; type: in vivo, Balb/c mice
Method: (§2) The protocol for establishing an AD mouse model in this Example was modified from those described previously. Briefly, referring to FIG. 4, DNCB-induced AD mouse model was prepared by the repeated applications of 20 μL of 1% DNCB in acetone/olive oil (4:1) to the outer and inner surfaces of mouse ears and 100 μL of the same solution to the shaved back skin once on days 1, 2, and 3. Mice of Control group were treated with the identical volumes of vehicle.
The DNCB-sensitized mice were randomly assigned to one of three groups: DNCB (Positive control), DNCB+3% topical melatonin (Treatment: low-dose), DNCB+5% topical melatonin (Treatment: high-dose). Each group (including Control group) consisted of 5 mice. From days 9 to 19, sensitized mice were challenged by applying 0.5% DNCB to the skin surfaces. For the two groups treated with topical melatonin groups, 0.3 mg of topical melatonin ointment (3% or 5% melatonin in Vaseline) was given together with DNCB during the challenge period. […]
Blood and dorsal skin of each mouse were collected on the last day of the experiment (Day 20) and stored at −80° C. until use. Serum IgE levels were measured using the ImmunoCAP fluorescence enzyme immunoassay (Phadia AB, Sweden) according to the manufacturer's instructions. The dorsal skin mRNA expression of the cytokines IL-4, IL-13, and IL-17 were measured by RT-PCR.

[3] = tested on: DNCB-induced AD mouse model; experiment: Example 6: dermatitis severity, topical melatonin cream in DNCB-induced AD mouse model; type: in vivo, Balb/c mice; details: for clinical score (dermatitis): day 1 to day 14, Day 15, DNCB group 10, Control 0
Method: Macroscopic assessment of the severity of dermatitis was determined by a scoring method as described previously. Briefly, the degree of each sign were scored as 0 (none), 1 (mild), 2 (moderate), and 3 (severe). This scoring was based on the severity of erythema (hemorrhage), edema, excoriation (erosion), and dryness (scaling). The total score (minimum 0 and maximum 12) from the four symptoms of each mouse were taken as the score for that mouse. Ear thickness was measured with a thickness gauge (Digimatic Indicator, Mitsutoyo, Tokyo). This assessment was performed on the last day of the experiment (Day 20) by an investigator who was blind to the grouping of the animals.
as §1
as §2, with “12,” for “4,”, “1” for “1, 2,”, “4.” for “3.”
The DNCB-sensitized mice were randomly assigned to one of four groups: DNCB, DNCB+0.1% topical melatonin, DNCB+1% topical melatonin, DNCB+8% topical melatonin. Each group (including Control group) consisted of 3 mice. On days 8 and 11, sensitized mice was challenged by applying 0.2% DNCB to the skin surfaces. For the three groups treated with topical melatonin groups, 0.1 mg of topical melatonin cream was given twice a day from day 1 to day 14. The cream base consisted of a mixture of tefose 63, octyldodecyl myristate, sorbic acid, methyl paraben sodium, ddH2O, and apricot kernel oil. For Control and DNCB groups, 0.1 mg of cream base was given twice a day from day 1 to day 14. This experiment was ended at Day 15.
The dermatitis severity of each mouse treated with or without melatonin was evaluated in the same manner as those described in Example 5. This evaluation was performed on the last day of the experiment (Day 15) by an investigator who was blind to the grouping of the animals.

[4] = after oral melatonin 3 mg/d at bedtime for 4 weeks, mean, actigraphy
[5] = after vs before oral melatonin 3 mg/d, 4 weeks, mean
[6] = melatonin phase, before treatment, mean, actigraphy
[7] = melatonin vs placebo, adjusted for age and sex

With `COc1ccc2[nH]cc(CCNC(C)=O)c2c1` [Melatonin, melatonin] the “sleep-onset latency, Wilcoxon signed rank test” value ([1]; FIG. 2D, almost unchanged in placebo treatment) was “decreased the sleep-onset latency significantly”, the “patients who believed that their sleep had improved” value ([1]; after melatonin treatment, 17 of 37 (placebo 13 of 38 [34%])) was 46% and the “Fragmentation index, After” value ([1]; after oral melatonin 3 mg/d at bedtime for 4 weeks, mean) was 13.6. For the same compound, the “Mobility in sleep, After” value [1, 4] was 9.7%, the “Sleep efficiency, After” value [1, 4] was 76.7% and the “Sleep-onset latency, After” value [1, 4] was 21.6 min. For the same compound, the “Total sleep time, After” value [1, 4] was 390.1 min/night, the “WASO (wake after sleep onset), After” value [1, 4] was 74.5 min and the “Wake in sleep interval, After” value [1, 4] was 15.6%. For the same compound, the “Fragmentation index, Difference” value [1, 5] was −2.4, the “Mobility in sleep, Difference” value [1, 5] was −2.0% and the “Sleep efficiency, Difference” value [1, 5] was 2.4%. For the same compound, the “Sleep-onset latency, Difference” value [1, 5] was -23.4 min, the “Total sleep time, Difference” value [1, 5] was 10.0 min/night and the “WASO (wake after sleep onset), Difference” value [1, 5] was -9.0 min. The “Wake in sleep interval, Difference” value [1, 5] was −2.1%, the “effect on the other sleep variables measured by actigraphy” value ([1]; between the melatonin and placebo phases) was “did not differ significantly” and the “decrease of the sleep-onset latency more than placebo” value ([1]; linear mixed-effects model, adjusted for age and sex) was 21.4 min. The “sleep-onset latency, first treatment period, after” value ([1]; melatonin group, first treatment period, after oral 3 mg/d for 4 weeks, actigraphy) was 24.4 min, the “sleep-onset latency, first treatment period, before” value ([1]; melatonin group, first treatment period, before treatment, actigraphy) was 42.8 min and the “sleep-onset latency, second treatment period, after” value ([1]; melatonin group, second treatment period, after oral 3 mg/d for 4 weeks, actigraphy) was 19.1 min. For the same compound, the “sleep-onset latency, second treatment period, before” value ([1]; melatonin group, second treatment period, before treatment, actigraphy) was 46.7 min, the “Mobility in sleep, Before” value [1, 6] was 11.6% and the “Sleep efficiency, Before” value [1, 6] was 74.4%. The “Sleep-onset latency, Before” value [1, 6] was 44.9 min, the “Total sleep time, Before” value [1, 6] was 380.1 min/night and the “WASO (wake after sleep onset), Before” value [1, 6] was 83.6 min. For the same compound, the “Wake in sleep interval, Before” value [1, 6] was 17.6%, the “Fragmentation index, Before” value ([1]; melatonin phase, before treatment, mean, greater scores indicate more fragmented sleep) was 16.0 and the “effect on sleep efficiency, wake time during sleep, or sleep fragmentation” value ([1]; melatonin treatment compared to placebo, FIG. 3) was “no significant effect”. For the same compound, the “Fragmentation index, Difference of Treatment Effect From the Linear Mixed-Effects Model, Mean” value [1, 7] was −3.2, the “Mobility in sleep, Difference of Treatment Effect From the Linear Mixed-Effects Model, Mean” value [1, 7] was −2.9% and the “Sleep efficiency, Difference of Treatment Effect From the Linear Mixed-Effects Model, Mean” value [1, 7] was 2.2%. The “Sleep-onset latency, Difference of Treatment Effect From the Linear Mixed-Effects Model, Mean” value [1, 7] was -21.4 min, the “Total sleep time, Difference of Treatment Effect From the Linear Mixed-Effects Model, Mean” value [1, 7] was 24.8 min/night and the “WASO, Difference of Treatment Effect From the Linear Mixed-Effects Model, Mean” value [1, 7] was -8.2 min. For the same compound, the “Wake in sleep interval, Difference of Treatment Effect From the Linear Mixed-Effects Model, Mean” value [1, 7] was −2.3%, the “shortening of sleep-onset latency, mean” value ([1]; oral melatonin treatment) was 23.4 min and the “shortening of sleep-onset latency, mean percent” value ([1]; oral melatonin treatment) was 52.1%. The “gross findings of dermatitis” value ([2]; DNCB-stimulated mice treated with melatonin, FIG. 5, less skin erythema, less skin excoriation, improved hair growth) was “dermatitis was improved”, the Dermatitis clinical score ([2]; after topical melatonin treatment, decreased from 12, total score 0 to 12, Day 20, concentration not given) was 3 and the “skin mRNA expression of IL-4, dose-response” value (IL-4; 5% melatonin treatment compared with 3% melatonin treatment) was “decreased more”. For the same compound, the “skin mRNA expression of IL-4” value (IL-4; after topical melatonin treatment (3% or 5%), FIG. 11A) was “decreased”, the “clinical score (dermatitis)” value ([3]; 0.1% melatonin cream twice a day) was 7 and the gross skin findings ([3]; 0.1%, 1%, and 8% topical melatonin, 8% improved the skin severity most) was “improved the gross skin findings in a dose-dependent manner”. For the same compound, the “clinical score (dermatitis)” value ([3]; 8% melatonin cream twice a day) was 2 and the Ear thickness ([3]; after 8% melatonin treatment, FIG. 14) was “significantly improved”.
